Results as given in US12478585B2, “Micelles and vesicles for the delivery of glycopeptides” (ARIZONA BOARD OF REGENTS ON BEHALF OF THE UNIVERSITY OF …, priority 2017, dated 2025).

Columns and labels:
[1] = CMC determination by DOSY NMR (diffusion coefficients vs inverse concentration, linear regression); type: physicochemical; conditions: for CMC: DOSY, in D2O, Table 1; for CMC, DOSY (Diffusion Coefficients): Table 2
Experimental: Sample solutions were transferred (500 μL) to 5 mm NMR tubes for automated analysis via Bruker 400 MHz spectrometer. Gradient pulse strengths and delays were standardized for all experiments, with a pulse interval (δ) of 3 ms and diffusion interval (Δ) of 200 ms; these values were experimentally determined to ensure the arrayed diffusion data would provide a reasonable curve for accurate Dc determination.
Stacked data arrays were processed in MestReNova® by setting the appropriate value “k” standardized to known self-diffusion coefficients of the bulk solvent, then applying Bayesian DOSY transform to yield pseudo-2D spectra containing the ^1H NMR spectrum vs diffusion coefficients. Averaged values for samples at each concentration were plotted vs. the inverse concentration. Data points from monomeric and aggregated samples were identified by the first signs of decreasing Dc, and linear regression of the two sets provided an intercept estimated as the CMC. Slope and intercept errors were used to calculate error.
Linear regression of the data sets, i.e. monomers and aggregates, provided an intercept estimated as the CMC. […] CMC's decreased approximately a full order of magnitude when the hydrocarbon chain length increased by two methylene groups as described previously.

[2] = literature; cited from earlier work
[3] = CMC by surface tensiometry; type: physicochemical; conditions: Table 2
Description: CMC measurements from DOSY experiments agree with previously reported surface tensiometry data for melibiosides and cellobiosides, as well as literature values for the glucosides.

[4] = Table 2, marked (lit); cited from earlier work
[5] = Aggregate radius and aggregation number (Nagg) from DOSY diffusion data (Stokes-Einstein, spherical model); type: physicochemical; conditions: D2O
Experimental: The Stokes-Einstein equation provided estimated aggregate radii from the recorded diffusion coefficients. Further, Tanford's equations: lc≤lmax≈(0.154+0.1265n)nm and v≈(27.4+26.9n)×[…] nm^3 were used to calculate the critical volume (v) and maximum length (lmax) of the hydrocarbon tail based on the length of the lipid tail, n. Energy-minimized structures in MOE® were measured to find critical length (lc) values.
The average micelle radius (r) was calculated for each concentration of the surfactants (FIG. 9). Using molecular volume (V) calculations from MOE®, a spherical model was used to estimate aggregation numbers (Nagg) for each sample (FIG. 10). In general, these values correspond well to values determined by fluorescence quenching experiments. For samples such as decyl glucoside and dodecyl melibioside, Nagg values greater than 200 are representative of both the fact that larger aggregates will form at high concentrations, and that D2O (and 0.9% NaCl in H2O) induces the formation of higher order structures. Dodecyl melibioside is an example, where previous fluorescence quenching experiments show Nagg averages at 65 in concentrations over 20 mM. For these DOSY experiments Nagg is above 300 at only 5 mM, […], and more likely describing rod-like aggregates.

[6] = Solubility/precipitation behaviour in D2O, 0.9% NaCl and buffers
Experimental: NMR samples were prepared in triplicate by diluting concentrated stock solutions of the alkyl glycoside or SDS in D2O to concentrations below the known or estimated CMC values. For highly concentrated and/or insoluble samples, vials were warmed in an oil bath until the solution formed and was clear and cooled to RT. Precipitated samples were measured both before and after filtration of the precipitate to observe diffusion behavior. Solutions of the three glucosides were also prepared from 100 mM stock solutions of the glycolipid in dry CHCl3, with addition of D2O to aid solubility and aggregation. Soluble samples were analyzed to determine behavior in apolar conditions.

[7] = previous fluorescence quenching experiments, concentrations over 20 mM; cited from earlier work

Row | Compound | CMC [1] [mM] | CMC, DOSY (Diffusion Coefficients) [1] [mM] | CMC, Surface Tens. [3] [mM] | radius of "large" aggregates ([5]; samples containing precipitate) [Å] | radius of "small" aggregates ([5]; samples containing precipitate) [Å] | Nagg (aggregation number) ([5]; at 5 mM) | a0 [Lit.] (headgroup area) [2] [Å^2] | CMC, Surface Tens. (lit) [4] [mM] | solubility / precipitation [6] | Nagg average (aggregation number) [7]
1 | CCCCCCCCCCOC1O[C@H](CO)[C@@H](O[C@@H]2O[C@H](CO)[C@@H](O)[C@H](O)[C@H]2O)[C@H](O)[C@H]1O (some centres unmarked) [Decyl Cellobioside] | 1.8 ± 0.3 | 2.2 ± 0.7 | 1.8 ± 0.2 | – | – | – | 50 | – | – | –
2 | CCCCCCCCCCO[C@@H]1O[C@H](CO)[C@@H](O)[C@H](O)[C@H]1O [Decyl Glucoside] | 1.9 ± 0.9 | 2.1 ± 0.7 | – | 90 | 40 | – | 42 | 2.2 | – | –
3 | CCCCCCCCCCOC1O[C@H](CO[C@H]2O[C@H](CO)[C@H](O)[C@H](O)[C@H]2O)[C@@H](O)[C@H](O)[C@H]1O (some centres unmarked) [Decyl Melibioside] | 3.9 ± 0.1 | 3.9 ± 0.1 | 3.3 ± 0.2 | – | – | – | 68 | – | – | –
4 | CCCCCCCCCCCCOC1O[C@H](CO)[C@@H](O[C@@H]2O[C@H](CO)[C@@H](O)[C@H](O)[C@H]2O)[C@H](O)[C@H]1O (some centres unmarked) [Dodecyl Cellobioside] | – | 0.29 ± 0.4 | 0.18 ± 0.01 | – | – | – | 49 | – | – | –
5 | CCCCCCCCCCCCO[C@@H]1O[C@H](CO)[C@@H](O)[C@H](O)[C@H]1O [Dodecyl Glucoside] | – | – | – | – | – | – | 34 | – | remained insoluble | –
6 | CCCCCCCCCCCCOC1O[C@H](CO[C@H]2O[C@H](CO)[C@H](O)[C@H](O)[C@H]2O)[C@@H](O)[C@H](O)[C@H]1O (some centres unmarked) [Dodecyl Melibioside] | 0.3 ± 0.00 | 0.31 ± 0.005 | 0.30 ± 0.02 | – | – | above 300 | 51 | – | – | 65
7 | CCCCCCCCOC1O[C@H](CO)[C@@H](O[C@@H]2O[C@H](CO)[C@@H](O)[C@H](O)[C@H]2O)[C@H](O)[C@H]1O (some centres unmarked) [Octyl Cellobioside] | 19.7 ± 2.2 | 21 ± 2 | 19 ± 3 | – | – | – | 50 | – | – | –

Second part, led by results:

Row | CMC [1] [mM] | CMC, DOSY (Diffusion Coefficients) [1] [mM] | CMC, Surface Tens. [3] [mM] | radius of "large" aggregates ([5]; samples containing precipitate) [Å] | radius of "small" aggregates ([5]; samples containing precipitate) [Å] | Nagg (aggregation number) ([5]; at 5 mM) | Compound | a0 [Lit.] (headgroup area) [2] [Å^2] | CMC, Surface Tens. (lit) [4] [mM] | solubility / precipitation [6] | Nagg average (aggregation number) [7]
8 | 22.5 ± 2.4 | 20 ± 3 | – | – | – | – | CCCCCCCCO[C@@H]1O[C@H](CO)[C@@H](O)[C@H](O)[C@H]1O [Octyl Glucoside] | 42 | 20 | – | –
9 | 39.9 ± 5.2 | 40 ± 5 | 44 ± 5 | – | – | – | CCCCCCCCOC1O[C@H](CO[C@H]2O[C@H](CO)[C@H](O)[C@H](O)[C@H]2O)[C@@H](O)[C@H](O)[C@H]1O (some centres unmarked) [Octyl Melibioside] | 73 | – | – | –
10 | 8.5 ± 1.7 | 8.4 ± 2 | – | – | – | – | CCCCCCCCCCCCOS(=O)(=O)[O-].[Na+] [SDS, reference compound] | 61 | 8.2 | – | –
